Data on 3 compounds can be found in publication PMC4727946 (The Journal of General Physiology, 2016).

Holding throughout (format): cell-based
Experiment [1] has as its target T1, Pannexin1 (Panx1) (Homo sapiens, UniProt Q96RD7). Put plainly: whole-cell patch clamp of Panx1-transfected HEK293 cells, dose response. (In general: Patch clamp records ionic current or voltage across a cell membrane.)
Experiment [2] deals with T1, Pannexin1 (Panx1). Put plainly: whole-cell patch clamp in transfected HEK293 cells.
In experiment [3] the target is T1, Pannexin1 (Panx1). Put plainly: whole-cell patch clamp in transfected HEK293 cells. The source holds these as a separate data set.

T1 sequence (Q96RD7 whole entry): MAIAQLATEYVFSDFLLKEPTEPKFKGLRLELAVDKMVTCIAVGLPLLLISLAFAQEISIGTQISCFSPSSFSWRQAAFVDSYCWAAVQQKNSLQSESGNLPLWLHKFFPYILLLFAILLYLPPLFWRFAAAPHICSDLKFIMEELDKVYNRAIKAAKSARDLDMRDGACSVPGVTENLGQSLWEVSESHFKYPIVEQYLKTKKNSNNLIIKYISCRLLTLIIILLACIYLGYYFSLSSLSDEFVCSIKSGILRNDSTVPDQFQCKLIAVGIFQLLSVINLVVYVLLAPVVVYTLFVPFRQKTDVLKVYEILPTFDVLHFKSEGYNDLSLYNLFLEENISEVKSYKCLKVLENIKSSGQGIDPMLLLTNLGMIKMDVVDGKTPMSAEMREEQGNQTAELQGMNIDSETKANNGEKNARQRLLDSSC

For `CC1(C)[C@@H](OC(=O)CCC(=O)O)CC[C@]2(C)[C@H]3C(=O)C=C4[C@@H]5C[C@@](C)(C(=O)O)CC[C@]5(C)CC[C@@]4(C)[C@]3(C)CC[C@@H]12` [carbenoxolone], the IC50 (as a rule, the concentration needed to halve the response being measured) in experiment [1] was approximately 2000 nM. With `COc1ccc(Cl)cc1C(=O)NCCc1ccc(S(=O)(=O)NC(=O)NC2CCCCC2)cc1` [glybenclamide], the “whole-cell patch clamp in transfected HEK293 cells (150 μM)” value in experiment [2] was “W74 is essential not only for CBX, but also for the other four Panx1 inhibitors to function”. With `CCCN(CCC)S(=O)(=O)c1ccc(C(=O)O)cc1` [probenecid], in experiment [3], the “whole-cell patch clamp in transfected HEK293 cells (3 mM and 10 mM)” value is reported as “suggesting that binding of probenecid trapped Panx1 in a nonresting closed conformation”.
